Test results: patent US10111819B2 (The Procter & Gamble Company, priority 2015, dated 2018)

Key:
human TRPV1 receptor = target: T1, human TRPV1 receptor (Homo sapiens, UniProt Q8NER1, M315I/T336M); assay: FLIPR calcium flux, antagonists to CPC activation of TRPV1; format: cell-based; settings: for Ca count CPC TRPV1 Receptor Antagonist / % inhibition of CPC activation: compound 1 mM (0.04% for extracts); for Ca count CPC TRPV1 Receptor Antagonist: 30 min preincubation, then CPC 100 uM; for inhibition at 1000 µM: read-out: % inhibition of CPC activation; for % inhibition of CPC activation: TRPV1, CPC 100 uM
T1 construct: expressed in transfected cells; host or cells: HEK-293
Experimental: HEK-293 (human embryonic kidney) cells stably transfected with human TRPV1 receptor (SEQ ID NO. 1) were grown in 15 ml growth medium [high glucose DMEM (Dulbecco's Modification of Eagle's Medium) supplemented with 10% FBS (fetal bovine serum)], 100 μg/ml Penicillin/streptomycin, 100 μg/ml G418] in a 75 Cm^2 flask for 3 days at 33° C. in a mammalian cell culture incubator set at 5% CO2. Cells were detached with addition of 10 ml of PBS (phosphate buffered saline) by hand shaking gently. Cells were transferred to a 50 ml tube and centrifuged at 850 rpm for 3 minutes to remove PBS. After centrifugation, a pellet of cells is formed in the bottom of the tube separating them from the supernatant solution. The supernatant was discarded and the cell pellet is suspended in 1 ml of fresh growth medium to which 5 μl (12.5 μg) of Fluo-4 AM (Molecular Probes, Inc.) calcium indicator was added and incubated for 30 min with gentle shaking. Fluo-4 AM is a fluorescent dye used for quantifying cellular Ca^2+ concentrations in the 100 nM to […] range. At the end of the 30 minutes, 45 ml of assay buffer [1×HBSS (Hank's Balanced Salt Solution), 20 mM HEPES (4-(2-Hydroxyethyl)-1-piperazineethanesulfonic acid)] was added to wash cells and the resulting combination is then centrifuged at 850 rpm for 3 minutes to remove excess buffer and Fluo-4 AM calcium indicator; following centrifugation the assay buffer was removed. The pelleted cells were re-suspended in 10 ml assay buffer and 90 μl aliquots (˜50,000 cells) per well delivered to a 96-well assay plate containing compounds (final concentration 1 mM for pure compounds, 0.04% for extracts) or buffer control and incubated at room temperature for 30 minutes. After 30 minutes, the plate was placed into a fluorometric imaging plate reader (FLIPR^TETRA from Molecular Devices) and basal fluorescence recorded (excitation wave length 488 nm and emission wave length 510 nm). The FLIPR assay is an accepted method for detecting changes in intracellular calcium concentration. […] For determining the direct effect of test compounds on TRPV1 receptor, fluorescence was measured immediately after addition of each compound.

[1] = concentration level where the cooling effect can be clearly recognized; cited from earlier work
human TRPA1 receptor = target: T2, human TRPA1 receptor (Homo sapiens, UniProt O75762, K186N/R3C/R58T); assay: FLIPR calcium flux, antagonists to CPC activation of TRPA1; format: cell-based; settings: for % inhibition of CPC activation: TRPA1, CPC 100 uM; for % inhibition of CPC activation / Ca count CPC TRPA1 Receptor Antagonist: compound 1 mM (0.04% for extracts); for Ca count CPC TRPA1 Receptor Antagonist: 30 min preincubation, then CPC 100 uM; for inhibition at 1000 µM: read-out: % inhibition of CPC activation
T2 construct: expressed in transfected cells; host or cells: HEK-293
Experimental: HEK-293 (human embryonic kidney) cells stably transfected with human TRPA1 receptor (SEQ ID NO. 2) were grown in 15 ml growth medium [high glucose DMEM (Dulbecco's Modification of Eagle's Medium) supplemented with 10% FBS (fetal bovine serum)], 100 μg/ml Penicillin/streptomycin, 100 μg/ml G418] in a 75 Cm^2 flask for 3 days at 37° C. in a mammalian cell culture incubator set at 5% CO2. Cells were detached with addition of 10 ml of PBS (phosphate buffered saline) by gentle hand shaking. Cells were transferred to a 50 ml tube and centrifuged at 850 rpm for 3 minutes to remove PBS. After centrifugation, a pellet of cells was formed in the bottom of the tube separating them from the supernatant solution. The supernatant was discarded and the cell pellet suspended in 1 ml of fresh growth medium to which 5 μl (12.5 μg) of Fluo-4 AM (Molecular Probes, Inc., Grand Island, N.Y.) calcium indicator was added and incubated for 30 min with gentle shaking. Fluo-4 AM is a fluorescent dye used for quantifying cellular Ca^2+ concentrations in the 100 nM to 1 microM range. At the end of the 30 minutes, 45 ml of assay buffer [1×HBSS (Hank's Balanced Salt Solution), 20 mM HEPES (4-(2-Hydroxyethyl)-1-piperazineethanesulfonic acid)] was added to wash cells and the resulting combination was then centrifuged at 850 rpm for 3 minutes to remove excess buffer and Fluo-4 AM calcium indicator; following centrifugation the assay buffer was removed. The pellet cells were re-suspended in 10 ml assay buffer and 90 μl aliquots (˜50,000 cells) per well delivered to a 96-well assay plate containing compounds (final concentration 1 mM for pure compounds, 0.04% for extracts) or buffer control and incubated at room temperature for 30 minutes. After 30 minutes, the plate was placed into a fluorometric imaging plate reader (FLIPR^TETRA from Molecular Devices, Sunnyvale, Calif.) and basal fluorescence recorded (excitation wave length 488 nm and emission wave length 510 nm). The FLIPR assay is an accepted method for detecting changes in intracellular calcium concentration. […] For determining the direct effect of test compounds on TRPA1 receptor, fluorescence was measured immediately after addition of each compound.

T2 sequence (O75762 whole entry R3C/R58T/K186N): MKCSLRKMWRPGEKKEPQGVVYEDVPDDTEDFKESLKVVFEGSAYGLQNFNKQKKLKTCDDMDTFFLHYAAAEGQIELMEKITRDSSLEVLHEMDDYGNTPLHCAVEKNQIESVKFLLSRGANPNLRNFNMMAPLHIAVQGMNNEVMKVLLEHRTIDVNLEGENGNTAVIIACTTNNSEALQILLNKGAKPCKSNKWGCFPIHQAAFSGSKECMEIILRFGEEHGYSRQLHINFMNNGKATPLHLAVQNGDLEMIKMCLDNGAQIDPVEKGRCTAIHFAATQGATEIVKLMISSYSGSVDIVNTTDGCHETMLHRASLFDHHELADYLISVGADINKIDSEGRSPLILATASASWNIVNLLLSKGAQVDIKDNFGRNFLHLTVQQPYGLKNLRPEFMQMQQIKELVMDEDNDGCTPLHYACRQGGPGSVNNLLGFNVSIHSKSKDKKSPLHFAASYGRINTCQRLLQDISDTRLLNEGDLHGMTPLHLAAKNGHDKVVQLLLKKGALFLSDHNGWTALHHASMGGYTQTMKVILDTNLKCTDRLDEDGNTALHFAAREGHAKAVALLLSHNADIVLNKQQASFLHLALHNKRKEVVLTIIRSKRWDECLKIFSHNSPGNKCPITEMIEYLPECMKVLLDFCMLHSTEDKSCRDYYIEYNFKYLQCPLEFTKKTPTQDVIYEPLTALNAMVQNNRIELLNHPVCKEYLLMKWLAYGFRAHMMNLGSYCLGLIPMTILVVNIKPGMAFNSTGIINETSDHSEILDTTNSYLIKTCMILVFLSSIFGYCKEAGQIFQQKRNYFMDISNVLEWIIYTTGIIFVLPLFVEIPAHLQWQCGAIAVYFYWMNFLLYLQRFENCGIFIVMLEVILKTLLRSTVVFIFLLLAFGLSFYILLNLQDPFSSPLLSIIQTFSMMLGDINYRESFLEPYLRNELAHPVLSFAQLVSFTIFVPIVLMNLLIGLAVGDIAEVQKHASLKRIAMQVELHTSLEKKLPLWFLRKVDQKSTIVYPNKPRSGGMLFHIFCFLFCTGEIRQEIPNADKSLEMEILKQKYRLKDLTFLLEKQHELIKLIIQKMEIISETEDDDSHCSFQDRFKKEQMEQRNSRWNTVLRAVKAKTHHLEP
T1 sequence (Q8NER1 whole entry M315I/T336M): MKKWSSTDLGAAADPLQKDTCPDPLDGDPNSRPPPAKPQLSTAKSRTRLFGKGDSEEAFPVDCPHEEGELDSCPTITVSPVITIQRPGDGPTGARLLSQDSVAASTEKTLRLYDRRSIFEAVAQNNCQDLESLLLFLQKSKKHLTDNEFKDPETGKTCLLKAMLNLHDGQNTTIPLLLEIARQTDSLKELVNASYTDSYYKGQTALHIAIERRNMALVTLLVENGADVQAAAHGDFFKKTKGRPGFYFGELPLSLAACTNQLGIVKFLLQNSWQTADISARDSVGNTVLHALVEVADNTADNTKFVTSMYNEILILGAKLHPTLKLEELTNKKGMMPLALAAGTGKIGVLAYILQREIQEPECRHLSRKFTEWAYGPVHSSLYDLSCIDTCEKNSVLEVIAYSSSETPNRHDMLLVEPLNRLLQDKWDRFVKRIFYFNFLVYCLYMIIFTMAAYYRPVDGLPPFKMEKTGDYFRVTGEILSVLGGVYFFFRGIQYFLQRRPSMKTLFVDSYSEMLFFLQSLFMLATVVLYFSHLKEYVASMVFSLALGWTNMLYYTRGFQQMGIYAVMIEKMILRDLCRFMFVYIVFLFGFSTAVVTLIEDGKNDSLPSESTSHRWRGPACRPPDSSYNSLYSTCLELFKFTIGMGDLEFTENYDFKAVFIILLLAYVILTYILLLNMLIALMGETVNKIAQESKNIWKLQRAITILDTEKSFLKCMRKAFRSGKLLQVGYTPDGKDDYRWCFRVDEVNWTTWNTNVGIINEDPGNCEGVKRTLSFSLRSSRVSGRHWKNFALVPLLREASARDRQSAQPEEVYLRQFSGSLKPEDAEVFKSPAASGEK

Molecule | Ca count CPC TRPV1 Receptor Antagonist (human TRPV1 receptor) [count] | inhibition at 1000 µM (human TRPV1 receptor) [%] | Ca count CPC TRPA1 Receptor Antagonist (human TRPA1 receptor) [count] | other results
Nc1ccccc1C(=O)Oc1ccc2ccccc2c1 [2-Aminobenzoic Acid Naphthalen-2-Yl Ester] | 4172 | 38.3 | – | –
CCCCCC=CC(=O)O [2-Octenoic Acid, Predominantly Trans, 2-Octenoic Acid] | 2878 | 78.3 | – | –
CCCCCC=CC(C)=O [3-Nonen-2-one] | 3470 | 43.6 | – | –
CC(=O)CCc1ccc(O)cc1 [4-(4-Hydroxy-phenyl)-butan-2-one] | 1127 | 67.8 | – | –
COc1ccc(CCC(C)=O)cc1 [4-(4-Methoxyphenyl)-2-butanone] | 1218 | 55.2 | – | –
CCCC(=O)OC(C)(C)Cc1ccccc1 [Alpha,Alpha-Dimethylphenethyl Butyrate] | 4246 | 45.2 | – | –
CCCCOC(=O)C(C)C [Butyl Isobutyrate] | 1504 | 57 | – | –
CCCCCCCCCCOC(C)=O [Decyl Acetate] | 2079 | 60.2 | – | –
CC(C)[C@@H]1CC[C@@H](C)C[C@H]1O [L-menthol] | – | – | – | cooling threshold [1]: about 800 ppb
O=S(=O)([O-])[O-].[Mg+2] [Magnesium sulfate] | – | – | – | % inhibition of CPC activation (human TRPV1 receptor): 88.1%
Cc1occc(=O)c1OC(=O)C(C)C [Maltyl Isobutyrate] | – | – | 2882 | % inhibition of CPC activation (human TRPA1 receptor): 46.3%
COC(=O)CCCc1ccccc1 [Methyl 4-Phenylbutyrate] | 3469 | 43.6 | – | –
CC1(C)C2CC=C(CO)C1C2 (centres unmarked) [Myrtenol] | – | – | 440 | % inhibition of CPC activation (human TRPA1 receptor): 86.04%; % inhibition of CPC activation (human TRPA1 receptor; listed as myrtenol): 86%
CC1CCC(C(C)(C)S)C(=O)C1 (centres unmarked) [P-mentha-8-thiol-3-one] | – | – | 3513 | % inhibition of CPC activation (human TRPA1 receptor): 48.3%
CC(C)[C@@H]1CC[C@@H](C)C[C@@H]1O [Rinse 1-neomenthol, 1-neomenthol] | – | – | – | cooling threshold [1]: about 3,000 ppb
O=C(OC[C@H]1O[C@@H](OC(=O)c2cc(O)c(O)c(OC(=O)c3cc(O)c(O)c(O)c3)c2)[C@H](OC(=O)c2cc(O)c(O)c(OC(=O)c3cc(O)c(O)c(O)c3)c2)[C@@H](OC(=O)c2cc(O)c(O)c(OC(=O)c3cc(O)c(O)c(O)c3)c2)[C@@H]1OC(=O)c1cc(O)c(O)c(OC(=O)c2cc(O)c(O)c(O)c2)c1)c1cc(O)c(O)c(OC(=O)c2cc(O)c(O)c(O)c2)c1 [Tannic Acid] | – | – | 321 | inhibition at 1000 µM (human TRPA1 receptor): 95.3%
NCCc1ccc(O)cc1 [Uteramine] | 1093 | 68.8 | – | –
CC(=O)[O-].CC(=O)[O-].[Zn+2] [Zinc Acetate] | 1351 | – | – | % inhibition of CPC activation (human TRPV1 receptor): 89.8%
CC1=CCCC(C)(C)C1/C=C/C(C)O (stereo not drawn) [alpha-Ionol] | 2620 | – | – | % inhibition of CPC activation (human TRPV1 receptor): 66.2%
OC[C@H]1O[C@@H]2O[C@H]3[C@H](O)[C@@H](O)[C@@H](O[C@H]4[C@H](O)[C@@H](O)[C@@H](O[C@H]5[C@H](O)[C@@H](O)[C@@H](O[C@H]6[C@H](O)[C@@H](O)[C@@H](O[C@H]7[C@H](O)[C@@H](O)[C@@H](O[C@H]8[C@H](O)[C@@H](O)[C@@H](O[C@H]1[C@H](O)[C@H]2O)O[C@@H]8CO)O[C@@H]7CO)O[C@@H]6CO)O[C@@H]5CO)O[C@@H]4CO)O[C@@H]3CO [beta-Cyclodextrin] | – | – | 2324 | inhibition at 1000 µM (human TRPA1 receptor): 56.7%
CC1=C(/C=C/C(C)O)C(C)(C)CCC1 (stereo not drawn) [beta-Ionol] | 1265 | – | – | % inhibition of CPC activation (human TRPV1 receptor): 65.9%
CC(C)[C@@H]1CC[C@@H](C)C[C@@H]1O [d-neomenthol] | – | – | – | cooling threshold [1]: about 25,000 ppb
CCCOC(=O)c1cc(O)c(O)c(O)c1 [n-propyl gallate] | – | – | 1844 | inhibition at 1000 µM (human TRPA1 receptor): 65.6%
Manganese Citrate | – | – | 4553 | % inhibition of CPC activation (human TRPA1 receptor): 52.2%
Manganese Gluconate | – | – | 2234 | % inhibition of CPC activation (human TRPA1 receptor): 67.2%
